From patent US20240307351A1, “AGENT FOR ANTI-AGING OR FOR CELLULAR REJUVENATION” (TOHOKU UNIVERSITY, priority 2022, published 2024)

How the values were obtained:
[1] = Liver function markers in blood of C57BL6 mice; assay type: in vivo, mouse; conditions: C57BL6 mice (8 weeks old), oral, 50 or 150 mg/kg/day, 7 days, vs DMSO corn oil
Description: Compound #4 of DMSO corn oil was orally administered to C57BL6 mice (8 weeks old) at a dose of 50 mg/kg/day per kg of mouse weight for 7 days ([Group L]).
In addition, Compound #4 of DMSO corn oil was orally administered to C57BL6 mice (8 weeks old) at a dose of 150 mg/kg/day per kg of mouse weight for 7 days ([Group H]).
Further, DMSO corn oil was orally administered to C57BL6 mice (8 weeks old) for 7 days ([Control group]).

[2] = tested on: SIRTI protein; assay: Amount of SIRT1 protein in RH30 cells by Western blotting; assay type: cell-based, human; conditions: 30 μM, 24 hours, compared with Control group (DMSO)
Description: RH30 cells (human rhabdomyosarcoma cell line; gli gene expression+, N-myc gene expression+) at 1×10^6 cell/dish were seeded and cultured in a dish containing 10 mL of a culture solution (low-glucose-containing DMEM medium (glucose concentration of 1.0 g/dL) to which 10 wt. % of FBS was added). One day later, Compound #5 was added to have a concentration of 30 μM, and the mixture was cultured for 24 hours ([Compound #5 addition group]). Compound #9, Compound #13, Compound #21, Compound #30, or Compound #35 as the present compound was added in place of Compound #5, and the mixture was cultured in the same manner, respectively, as [Compound #9 addition group], [Compound #13 addition group], [Compound #21 addition group], [Compound #30 addition group], and […].
On the other hand, as a control, DMSO (dimethyl sulfoxide) was added to have a concentration of 0.2 wt. %, and the mixture was cultured for 24 hours ([Control group]).
After completion of culture, the cells were recovered, disrupted by a typical method, and the amount of each of the proteins (SIRTI proteins, etc.) in the cells was detected by Western blotting. Further, the results of quantification of each band in the detection results of the Western blotting in FIG. 6 through normalization with the band of β-actin as a loading control are shown in FIG. 7.

Compound | GOT in blood [1] | GPT in blood [1] | amount of SIRTI protein in cells [2]
O=C(CC(C(=O)O)c1c[nH]c2ccccc12)c1ccc(F)cc1 (centres unmarked) [Compound #4] | decreased | decreased | 
CC(=O)N1CCC(CC(C(=O)O)c2c[nH]c3ccccc23)CC1 (centres unmarked) [Compound #9] |  |  | increased
CC(C)(C)OC(=O)NCCCCCCC(C)(C(=O)O)c1c[nH]c2ccccc12 (centres unmarked) [Compound #13] |  |  | increased
CCCCCCn1cc(CC(=O)O)c2ccccc21 [Compound #30] |  |  | increased
